Data taken from patent US9926275B2 (priority 2013, dated 2018).
Like-named read-outs stand apart in the source and are kept apart here.

Assays:
CB1 receptor [1] = target: T1, CB1 receptor (Homo sapiens, UniProt P21554); experiment: DiscoveRx HitHunter cAMP XS+ assay in cAMP Hunter cell line, allosteric modulation of CP55,940 response; format: cell-based; details: Table 1, preincubation with compound, then CP55,940 challenge, 20 μM forskolin; for EC50: read-out: cAMP EC50
Experimental: Once it was established that the cells were healthy and growing normally, cells were passaged from flasks using cell dissociation reagent buffer and seeded into white walled clear bottom 384-well microplates for compound profiling. For profiling, cells were seeded at a density of 10000 cells per well in a total volume of 20 μL and were allowed to adhere and recover overnight prior to compound addition. Cells were treated the following day using the protocols shown below. cAMP modulation was determined using the DiscoveRx HitHunter cAMP XS+ assay.
Media was aspirated from cells and replaced with 10 μL 1:1 HBSS/Hepes: cAMP XS+ Ab reagent. Agonist (CP55,940) dose curves were performed to determine the EC20 value for the testing with the compounds of the present technology. 5 μL of 4× agonist was added to each well with an equal concentration of vehicle present. EC20 agonist concentration was determined directly from agonist dose curve.
(§1) For allosteric determination, cells were preincubated with compound followed by agonist challenge at the EC20 concentration of the agonist. 5 μL of 4× compound was added to cells and incubated at 37° C. for 30 minutes. 5 μL of 4× EC20 agonist was added to cells and incubated at 37° C. for 30 minutes.
Signal Detection: After appropriate compound incubation, assay signal was generated through incubation with 20 μL cAMP XS+ED/CL lysis cocktail for one hour followed by incubation with 20 μL cAMP XS+EA reagent for three hours at room temperature. Microplates were read following signal generation with a PerkinElmer Envision™ instrument for chemiluminescent signal detection.
(§2) Data Analysis: Dose curves were plotted using GraphPad Prism or Activity Base. The percentage activity is calculated using the following formula: % Activity=100%×(1−(mean RLU of test sample−mean RLU of MAX control)/(mean RLU of vehicle control [EC20 for PAM]−mean RLU of MAXcontrol).
(§3) Agonist (CP55,940) dose curves were performed for the CNR1 PathHunter and cAMP Hunter cell lines. […] The cAMP assay was performed in the presence of 20 μM forskolin (EC80).
(§4) In Vitro Evaluation: The in vitro evaluation of the covalent allosteric modulators was performed using as described previously.

CB1 receptor [2] = target: T1, CB1 receptor; experiment: β-arrestin recruitment in CNR1 PathHunter cell line, allosteric modulation of CP55,940 response; format: cell-based; details: Table 1, CP55,940 as agonist; for EC50: read-out: β-arrestin EC50
Experimental: as §1, §2, §3, §4

rats [3] = format: in vivo
Experimental: (§5) GAT358 was assessed in two different behavioral tests, the Taste Reactivity (TR) Test and the Light Dark Emergence (LDE) Test. The TR Test is used to assess the possibility of a drug inducing nausea in rats as measured by conditioned gaping to infusion of a 0.01% saccharin solution previously paired with drug administration.
GAT358 was dissolved in a mixture of 4% DMSO, 1% Tween80, 1% Cremophor and 94% Saline (for doses of 5, 10 and 20 mg/kg) and injected at a volume of 3 ml/kg. Assessed was the vehicle (“Veh”), 10 and 20 mg/kg doses of GAT358 in the conditioned gaping model of nausea where rats are infused for 2 min with novel 0.01% saccharin followed immediately by an injection of the appropriate drug dose [Vehicle (n=6), GAT358-10 (n=8) and GAT358-20 (n=8)]. Seventy two hours following conditioning the rats were infused for 2 min with 0.01% saccharin during the drug free TR Test while their orofacial responses were videotaped for subsequent scoring. Further assessed was the Veh, 5 and 10 mg/kg of GAT358 in the LDE test [Veh (n=6), GAT358-5 (n=8) and GAT358-10 (n=8)]. Group assignment was counterbalanced based upon previous drug experience. The rats were administered the appropriate drug dose 45 min prior to being placed in the enclosed dark chamber that allowed access to an open field area where the lighting was 100 lux. The activity of the rat while in the LDE test for 5 min was tracked by Ethovision (Noldus Information Technology) and subsequently the duration of time spent in the open field and activity (distance travelled (cm)/amount of time(sec)) was analyzed.
Results (all analyses were conducted using a one way ANOVA): […]

rats [4] = experiment: Light Dark Emergence (LDE) Test of anxiety; format: in vivo; details: 5 or 10 mg/kg, p>0.05
Experimental: as §5
GAT358 was dissolved in a mixture of 4% DMSO, 1% Tween80, 1% Cremophor and 94% Saline (for doses of 5, 10 and 20 mg/kg) and injected at a volume of 3 ml/kg. Assessed was the vehicle (“Veh”), 10 and 20 mg/kg doses of GAT358 in the conditioned gaping model of nausea where rats are infused for 2 min with novel 0.01% saccharin followed immediately by an injection of the appropriate drug dose [Vehicle (n=6), GAT358-10 (n=8) and GAT358-20 (n=8)]. Seventy two hours following conditioning the rats were infused for 2 min with 0.01% saccharin during the drug free TR Test while their orofacial responses were videotaped for subsequent scoring. Further assessed was the Veh, 5 and 10 mg/kg of GAT358 in the LDE test [Veh (n=6), GAT358-5 (n=8) and GAT358-10 (n=8)]. […] The activity of the rat while in the LDE test for 5 min was tracked by Ethovision (Noldus Information Technology) and subsequently the duration of time spent in the open field and activity (distance travelled (cm)/amount of time(sec)) was analyzed. […]

T1 sequence (P21554 whole entry): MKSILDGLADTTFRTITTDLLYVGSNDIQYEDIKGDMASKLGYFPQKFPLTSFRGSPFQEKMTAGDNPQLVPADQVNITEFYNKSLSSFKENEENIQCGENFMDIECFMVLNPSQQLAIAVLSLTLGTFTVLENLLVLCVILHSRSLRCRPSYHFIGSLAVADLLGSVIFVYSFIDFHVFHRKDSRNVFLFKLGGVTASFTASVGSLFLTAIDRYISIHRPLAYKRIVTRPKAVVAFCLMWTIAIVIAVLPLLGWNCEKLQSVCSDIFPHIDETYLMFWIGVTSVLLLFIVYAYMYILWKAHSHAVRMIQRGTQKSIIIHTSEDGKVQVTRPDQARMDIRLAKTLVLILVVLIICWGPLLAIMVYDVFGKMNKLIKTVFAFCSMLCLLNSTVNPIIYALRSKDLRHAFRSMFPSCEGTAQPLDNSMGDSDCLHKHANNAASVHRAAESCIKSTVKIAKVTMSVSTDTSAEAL

SMILES	cAMP % inhibition (CB1 receptor [1]) [%]	EC50 (CB1 receptor [1]) [µM]	β-arrestin % inhibition (CB1 receptor [2]) [%]	EC50 (CB1 receptor [2]) [µM]	total activity of rats during the drug-free test with saccharin vs vehicle (rats [3]; 10 mg/kg, Bonferroni p=0.006)	total activity of rats during the drug-free test with saccharin vs vehicle (rats [3]; 20 mg/kg, Bonferroni p=0.012)	conditioned gaping responses vs vehicle (rats [3]; 10 and 20 mg/kg, drug-free TR test 72 h after conditioning, 2 min saccharin infusion, p>0.05)	total aversive responses (gaping, chin rubs and paw treads) vs vehicle (rats [3]; 10 and 20 mg/kg, drug-free TR test 72 h after conditioning, p>0.05)	conditional ingestive responding to saccharin infusion (rats [3]; 10 and 20 mg/kg, drug-free TR test, p>0.05)	time spent in the open field (rats [4]; 45 min before 5 min LDE test)	activity of rats during the 5 min in the LDE test (rats [4]; 45 min before test)
COc1ccc(NC(=O)Nc2cccc(-c3cccc(N4CCCC4)n3)c2)cc1 [Compound 10h, 1-(4-Methoxyphenyl)-3-(3-(6-(pyrrolidin-1-yl)pyridin-2-yl)phenyl)urea]	97	1.23	98	0.099							
O=C(Nc1cccc(-c2cccc(N3CCCC3)n2)c1)Nc1ccc(Cl)cc1C#CCCO [Compound 22a, 1-(4-Chloro-2-(4-hydroxybut-1-yn-1-yl)phenyl)-3-(3-(6-(pyrrolidin-1-yl)pyridin-2-yl)phenyl)urea]	49	6.49	83	4.89							
Cc1cc(Cl)ccc1NC(=O)Nc1cccc(-c2cccc(N3CCCC3)n2)c1 [Compound 10s, 1-(4-Chloro-2-methylphenyl)-3-(3-(6-(pyrrolidin-1-yl)pyridin-2-yl)phenyl)urea]	18	> 10	109	0.209							
N#C/N=C(/Nc1ccc(Cl)cc1)Nc1cccc(-c2cccc(N3CCCC3)n2)c1 [Compound 35, (Z)-1-(4-Chlorophenyl)-2-cyano-3-(3-(6-(pyrrolidin-1-yl)pyridin-2-yl)phenyl)guanidine]	29	3.34	69	3.06							
O=C(Nc1ccc(F)cc1)Nc1cccc(-c2cccc(N3CCCC3)n2)c1 [Compound 10t, 1-(4-Fluorophenyl)-3-(3-(6-(pyrrolidin-1-yl)pyridin-2-yl)phenyl)urea]	119	0.148	108	0.007							
O=C(Nc1cccc(-c2cccc(N3CCCC3)n2)c1)Nc1ccc(Cl)c(C#CCCO)c1 [Compound 22b, 1-(4-Chloro-3-(4-hydroxybut-1-yn-1-yl)phenyl)-3-(3-(6-(pyrrolidin-1-yl)pyridin-2-yl)phenyl)urea]	152	0.551	123	0.149							
O=C(Nc1ccc(Oc2ccccc2)cc1)Nc1cccc(-c2cccc(N3CCCC3)n2)c1 [Compound 10k, 1-(4-Phenoxyphenyl)-3-(3-(6-(pyrrolidin-1-yl)pyridin-2-yl)phenyl)urea]	91	0.75	123	0.115							
S=C(Nc1ccc(Cl)cc1)Nc1cccc(-c2cccc(N3CCCC3)n2)c1 [Compound 32, 1-(4-Chlorophenyl)-3-(3-(6-(pyrrolidin-1-yl)pyridin-2-yl)phenyl)thiourea]	77	0.83	110	0.276							
O=c1c(Nc2ccc(Cl)cc2)c(Nc2cccc(-c3cccc(N4CCCC4)n3)c2)c1=O [Compound 38, 3-((4-Chlorophenyl)amino)-4-((3-(6-(pyrrolidin-1-yl)pyridin-2-yl)phenyl)amino)cyclobut-3-ene-1,2-dione]	16	> 10	107	0.111	significantly lower than the rats in the vehicle group	significantly lower than the rats in the vehicle group	did not result in the expression of conditioned gaping or total aversive responses that differed significantly from the vehicle group	did not result in the expression of conditioned gaping or total aversive responses that differed significantly from the vehicle group	did not alter conditional ingestive responding to saccharin infusion	did not significantly alter the time spent in the open field	did not significantly alter
O=C(Nc1ccccc1)Nc1cccc(-c2cccc(N3CCCC3)n2)c1 [Compound 10q, 1-Phenyl-3-(3-(6-(pyrrolidin-1-yl)pyridin-2-yl)phenyl)urea]		0.501	135	0.11							
O=C(Nc1ccc(Cl)cc1)Nc1ccccc1-c1cccc(N2CCCC2)n1 [Compound 55, 1-(4-Chlorophenyl)-3-(2-(6-(pyrrolidin-1-yl)pyridin-2-yl)phenyl)urea]	110	3.4	61	5.86							
O=C(Nc1cccc(-c2cccc(N3CCCC3)n2)c1)Nc1ccccc1CCCCOC1CCCCO1 (stereo not drawn) [Compound 23c, 1-(3-(6-(Pyrrolidin-1-yl)pyridin-2-yl)phenyl)-3-(2-(4-((tetrahydro-2H-pyran-2-yl)oxy)butyl)phenyl)urea]	20	> 10	69	6.19							
COc1ccccc1NC(=O)Nc1cccc(-c2cccc(N3CCCC3)n2)c1 [Compound 10j, 1-(2-Methoxyphenyl)-3-(3-(6-(pyrrolidin-1-yl)pyridin-2-yl)phenyl)urea]	0	> 10	93	1.23							
O=C(Nc1cccc(-c2cccc(N3CCCC3)n2)c1)Nc1ccc(Cl)c(I)c1 [Compound 19b, 1-(4-Chloro-3-iodophenyl)-3-(3-(6-(pyrrolidin-1-yl)pyridin-2-yl)phenyl)urea]	30	> 10	120	0.126							
O=C(Nc1ccc(Cl)cc1)Oc1cccc(-c2cccc(N3CCCC3)n2)c1 [Compound 31, 3-(6-(Pyrrolidin-1-yl)pyridin-2-yl)phenyl (4-chlorophenyl)carbamate]	8.8	> 10	58	8.66							
